In PubChem BioAssay (NCI):
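Each compound was tested at five concentrations against cells in 96-well plates for 48 hours. TGI marks complete inhibition of growth.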

What was measured:
Test in all cases: NCI-60 cell line screen, 48 h
UACC-257 melanoma = tested on: UACC-257 melanoma
BT-549 breast = tested on: BT-549 breast
M14 melanoma = tested on: M14 melanoma
LOX IMVI melanoma = tested on: LOX IMVI melanoma
SNB-19 CNS = tested on: SNB-19 CNS
UO-31 renal = tested on: UO-31 renal
OVCAR-4 ovarian = tested on: OVCAR-4 ovarian
HCC-2998 colon = tested on: HCC-2998 colon
HOP-92 NSCLC = tested on: HOP-92 NSCLC
SK-MEL-5 melanoma = tested on: SK-MEL-5 melanoma
PC-3 prostate = tested on: PC-3 prostate
OVCAR-3 ovarian = tested on: OVCAR-3 ovarian
RXF 393 renal = tested on: RXF 393 renal
MCF7 breast = tested on: MCF7 breast
SK-MEL-2 melanoma = tested on: SK-MEL-2 melanoma
RPMI-8226 leukemia = tested on: RPMI-8226 leukemia
T-47D breast = tested on: T-47D breast
DU-145 prostate = tested on: DU-145 prostate
KM12 colon = tested on: KM12 colon
SK-MEL-28 melanoma = tested on: SK-MEL-28 melanoma
CAKI-1 renal = tested on: CAKI-1 renal
SW-620 colon = tested on: SW-620 colon
MALME-3M melanoma = tested on: MALME-3M melanoma
HL-60(TB) leukemia = tested on: HL-60(TB) leukemia
NCI-H226 lung = tested on: NCI-H226 lung
MOLT-4 leukemia = tested on: MOLT-4 leukemia
NCI-H460 lung = tested on: NCI-H460 lung
UACC-62 melanoma = tested on: UACC-62 melanoma
TK-10 renal = tested on: TK-10 renal
MDA-MB-435 = tested on: MDA-MB-435
OVCAR-8 ovarian = tested on: OVCAR-8 ovarian
A498 renal = tested on: A498 renal
NCI/ADR-RES ovarian = tested on: NCI/ADR-RES ovarian
CCRF-CEM leukemia = tested on: CCRF-CEM leukemia
786-0 renal = tested on: 786-0 renal
SN12C renal = tested on: SN12C renal
U251 CNS = tested on: U251 CNS
NCI-H23 lung = tested on: NCI-H23 lung
MDA-MB-231 breast = tested on: MDA-MB-231 breast
HS 578T breast = tested on: HS 578T breast
SF-268 CNS = tested on: SF-268 CNS
SNB-75 CNS = tested on: SNB-75 CNS
SK-OV-3 ovarian = tested on: SK-OV-3 ovarian
K-562 leukemia = tested on: K-562 leukemia
NCI-H522 lung = tested on: NCI-H522 lung
IGROV1 ovarian = tested on: IGROV1 ovarian
OVCAR-5 ovarian = tested on: OVCAR-5 ovarian
MDA-N = tested on: MDA-N
HCT-15 colon = tested on: HCT-15 colon
EKVX NSCLC = tested on: EKVX NSCLC
SF-295 CNS = tested on: SF-295 CNS
SR leukemia = tested on: SR leukemia
A549 NSCLC = tested on: A549 NSCLC
HCT-116 colon = tested on: HCT-116 colon
SF-539 CNS = tested on: SF-539 CNS
HT29 colon = tested on: HT29 colon
ACHN renal = tested on: ACHN renal
HOP-62 NSCLC = tested on: HOP-62 NSCLC
COLO 205 colon = tested on: COLO 205 colon

In the case of `COc1cc(NC=C2C(=O)OC(C)(C)OC2=O)c(OC)c(C)c1OC`, the TGI (UACC-257 melanoma) is reported as > 100 µM, the TGI (BT-549 breast) is reported as > 100 µM and the TGI (M14 melanoma) is reported as > 100 µM. The TGI (LOX IMVI melanoma) was > 100 µM, the TGI (SNB-19 CNS) was > 100 µM and the TGI (UO-31 renal) was > 100 µM. For the same compound, the TGI (OVCAR-4 ovarian) was > 100 µM, the TGI (HCC-2998 colon) was > 100 µM and the TGI (HOP-92 NSCLC) was > 100 µM. The TGI (SK-MEL-5 melanoma) was > 100 µM, the TGI (PC-3 prostate) was > 100 µM and the TGI (OVCAR-3 ovarian) was > 100 µM. For the same compound, the TGI (RXF 393 renal) was > 100 µM, the TGI (MCF7 breast) was > 100 µM and the TGI (SK-MEL-2 melanoma) was > 100 µM. The TGI (RPMI-8226 leukemia) was > 100 µM, the TGI (T-47D breast) was > 100 µM and the TGI (DU-145 prostate) was > 100 µM. For the same compound, the TGI (KM12 colon) was > 100 µM, the TGI (SK-MEL-28 melanoma) was > 100 µM and the TGI (CAKI-1 renal) was > 100 µM. The TGI (SW-620 colon) was > 100 µM, the TGI (MALME-3M melanoma) was > 100 µM and the TGI (HL-60(TB) leukemia) was > 100 µM. For the same compound, the TGI (NCI-H226 lung) was > 100 µM, the TGI (MOLT-4 leukemia) was > 100 µM and the TGI (NCI-H460 lung) was > 100 µM. For the same compound, the TGI (UACC-62 melanoma) was > 100 µM, the TGI (TK-10 renal) was > 100 µM and the TGI (MDA-MB-435) was > 100 µM. The TGI (OVCAR-8 ovarian) was > 100 µM, the TGI (A498 renal) was > 100 µM and the TGI (NCI/ADR-RES ovarian) was > 100 µM. The TGI (CCRF-CEM leukemia) was > 100 µM, the TGI (786-0 renal) was > 100 µM and the TGI (SN12C renal) was > 100 µM. The TGI (U251 CNS) was > 100 µM, the TGI (NCI-H23 lung) was > 100 µM and the TGI (MDA-MB-231 breast) was > 100 µM. For the same compound, the TGI (HS 578T breast) was > 100 µM, the TGI (SF-268 CNS) was > 100 µM and the TGI (SNB-75 CNS) was > 100 µM. The TGI (SK-OV-3 ovarian) was > 100 µM, the TGI (K-562 leukemia) was > 100 µM and the TGI (NCI-H522 lung) was > 100 µM. The TGI (IGROV1 ovarian) was > 100 µM, the TGI (OVCAR-5 ovarian) was > 100 µM and the TGI (MDA-N) was > 100 µM. For the same compound, the TGI (HCT-15 colon) was > 100 µM, the TGI (EKVX NSCLC) was > 100 µM and the TGI (SF-295 CNS) was > 100 µM. For the same compound, the TGI (SR leukemia) was > 100 µM, the TGI (A549 NSCLC) was > 100 µM and the TGI (HCT-116 colon) was > 100 µM. For the same compound, the TGI (SF-539 CNS) was > 100 µM, the TGI (HT29 colon) was > 100 µM and the TGI (ACHN renal) was > 100 µM. The TGI (HOP-62 NSCLC) was > 100 µM and the TGI (COLO 205 colon) was > 100 µM.
`CSc1c(CC(=O)Nc2ccc(Cl)cc2)n(Cc2ccccc2)c2ccccc12` was tested, and the TGI (UACC-257 melanoma) was > 100 µM, the TGI (BT-549 breast) was 46.9 µM and the TGI (M14 melanoma) was > 100 µM. The TGI (LOX IMVI melanoma) was > 100 µM, the TGI (SNB-19 CNS) was > 100 µM and the TGI (UO-31 renal) was > 100 µM. The TGI (OVCAR-4 ovarian) was 35.5 µM, the TGI (HCC-2998 colon) was 88 µM and the TGI (HOP-92 NSCLC) was 42.8 µM. For the same compound, the TGI (SK-MEL-5 melanoma) was > 100 µM, the TGI (PC-3 prostate) was 27.7 µM and the TGI (OVCAR-3 ovarian) was > 100 µM. The TGI (RXF 393 renal) was 30.1 µM, the TGI (MCF7 breast) was > 100 µM and the TGI (SK-MEL-2 melanoma) was 51.3 µM. The TGI (RPMI-8226 leukemia) was > 100 µM, the TGI (T-47D breast) was > 100 µM and the TGI (DU-145 prostate) was > 100 µM. The TGI (KM12 colon) was > 100 µM, the TGI (SK-MEL-28 melanoma) was > 100 µM and the TGI (CAKI-1 renal) was > 100 µM. The TGI (SW-620 colon) was > 100 µM, the TGI (MALME-3M melanoma) was > 100 µM and the TGI (HL-60(TB) leukemia) was > 100 µM. For the same compound, the TGI (NCI-H226 lung) was 71.8 µM, the TGI (MOLT-4 leukemia) was > 100 µM and the TGI (NCI-H460 lung) was > 100 µM. The TGI (UACC-62 melanoma) was > 100 µM, the TGI (TK-10 renal) was 57.4 µM and the TGI (MDA-MB-435) was > 100 µM. For the same compound, the TGI (OVCAR-8 ovarian) was 41 µM, the TGI (A498 renal) was 25.9 µM and the TGI (NCI/ADR-RES ovarian) was > 100 µM. For the same compound, the TGI (CCRF-CEM leukemia) was > 100 µM, the TGI (786-0 renal) was 30.3 µM and the TGI (SN12C renal) was > 100 µM. The TGI (U251 CNS) was 25 µM, the TGI (NCI-H23 lung) was > 100 µM and the TGI (MDA-MB-231 breast) was 39.3 µM. For the same compound, the TGI (HS 578T breast) was 69.4 µM, the TGI (SF-268 CNS) was > 100 µM and the TGI (SNB-75 CNS) was 33.1 µM. For the same compound, the TGI (SK-OV-3 ovarian) was > 100 µM, the TGI (K-562 leukemia) was > 100 µM and the TGI (NCI-H522 lung) was > 100 µM. For the same compound, the TGI (IGROV1 ovarian) was > 100 µM, the TGI (OVCAR-5 ovarian) was > 100 µM and the TGI (MDA-N) was > 100 µM. The TGI (HCT-15 colon) was > 100 µM, the TGI (EKVX NSCLC) was > 100 µM and the TGI (SF-295 CNS) was > 100 µM. For the same compound, the TGI (SR leukemia) was > 100 µM, the TGI (A549 NSCLC) was > 100 µM and the TGI (HCT-116 colon) was > 100 µM. The TGI (SF-539 CNS) was 9.6 µM, the TGI (HT29 colon) was > 100 µM and the TGI (ACHN renal) was > 100 µM. The TGI (HOP-62 NSCLC) was > 100 µM and the TGI (COLO 205 colon) was > 100 µM.
In the case of `COc1cc2ccc1OCc1cccc(n1)COc1ccc(cc1OC)C=NCCNCCNCCN=C2`, the TGI (UACC-257 melanoma) is reported as > 100 µM, the TGI (BT-549 breast) is reported as > 100 µM and the TGI (M14 melanoma) is reported as > 100 µM. For the same compound, the TGI (LOX IMVI melanoma) was > 100 µM, the TGI (SNB-19 CNS) was > 100 µM and the TGI (UO-31 renal) was > 100 µM. The TGI (OVCAR-4 ovarian) was > 100 µM, the TGI (HCC-2998 colon) was > 100 µM and the TGI (HOP-92 NSCLC) was > 100 µM. The TGI (SK-MEL-5 melanoma) was > 100 µM, the TGI (PC-3 prostate) was > 100 µM and the TGI (OVCAR-3 ovarian) was > 100 µM. The TGI (RXF 393 renal) was > 100 µM, the TGI (MCF7 breast) was > 100 µM and the TGI (SK-MEL-2 melanoma) was > 100 µM. For the same compound, the TGI (T-47D breast) was > 100 µM, the TGI (DU-145 prostate) was > 100 µM and the TGI (KM12 colon) was > 100 µM. For the same compound, the TGI (CAKI-1 renal) was > 100 µM, the TGI (SW-620 colon) was > 100 µM and the TGI (MALME-3M melanoma) was > 100 µM. For the same compound, the TGI (HL-60(TB) leukemia) was > 100 µM, the TGI (NCI-H226 lung) was > 100 µM and the TGI (MOLT-4 leukemia) was > 100 µM. The TGI (NCI-H460 lung) was > 100 µM, the TGI (UACC-62 melanoma) was > 100 µM and the TGI (TK-10 renal) was > 100 µM. The TGI (MDA-MB-435) was > 100 µM, the TGI (OVCAR-8 ovarian) was > 100 µM and the TGI (A498 renal) was > 100 µM. For the same compound, the TGI (NCI/ADR-RES ovarian) was > 100 µM, the TGI (CCRF-CEM leukemia) was > 100 µM and the TGI (786-0 renal) was > 100 µM. For the same compound, the TGI (SN12C renal) was > 100 µM, the TGI (U251 CNS) was > 100 µM and the TGI (NCI-H23 lung) was > 100 µM. For the same compound, the TGI (MDA-MB-231 breast) was > 100 µM, the TGI (HS 578T breast) was > 100 µM and the TGI (SF-268 CNS) was > 100 µM. The TGI (SNB-75 CNS) was > 100 µM, the TGI (SK-OV-3 ovarian) was > 100 µM and the TGI (K-562 leukemia) was > 100 µM. For the same compound, the TGI (NCI-H522 lung) was > 100 µM, the TGI (IGROV1 ovarian) was > 100 µM and the TGI (OVCAR-5 ovarian) was > 100 µM. The TGI (MDA-N) was > 100 µM, the TGI (HCT-15 colon) was > 100 µM and the TGI (EKVX NSCLC) was > 100 µM. The TGI (SR leukemia) was > 100 µM, the TGI (A549 NSCLC) was > 100 µM and the TGI (HCT-116 colon) was > 100 µM. For the same compound, the TGI (SF-539 CNS) was > 100 µM, the TGI (HT29 colon) was > 100 µM and the TGI (ACHN renal) was > 100 µM. The TGI (HOP-62 NSCLC) was > 100 µM and the TGI (COLO 205 colon) was > 100 µM.
